Experimental data from patent US10189809B2, “SGC stimulators” (Ironwood Pharmaceuticals, Inc., priority 2010, dated 2019).
Read-outs that look alike come from different tables or passages of the source.

Experiments:
[1] = target: soluble guanylate cyclase (sGC) (Homo sapiens (Human), UniProt Q02108+Q02153); assay: sGC-HEK-cGMP assay run with SNP incubation (HEK WC assay); type: cell-based
Outline: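 HEK293 cells with endogenous sGC were pretreated with 0.5 mM IBMX for 15 min at 37 °C, then exposed to test compound plus sodium nitroprusside for 10 min at 37 °C.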

[2] = target: T1, Human soluble guanylate cyclase enzyme (hsGC) (Homo sapiens (Human), UniProt Q02108+Q02153); assay: Purified human sGC enzyme activity assay; type: biochemical; settings: for sGC Enzyme (specific activity at 30 μM) / sGC Enzyme (fold increase at 30 μM without SNP) / sGC Enzyme (fold increase at 30 μM): 30 μM compound
Outline: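 Purified human sGC (5 ng) incubated 30 min at 37° C with compound at 10 or 30 μM final in pH 8.0 Tris with 300 μM GTP, 2 mM MgCl2, 2 mM DTT and 1 mM IBMX, then stopped with cold methanol. cGMP quantified against a standard curve. Specific activity (nmol cGMP/mg sGC/min) expressed as fold-change over DMSO control.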

[3] = target: T1, Human soluble guanylate cyclase enzyme (hsGC); assay: Purified human sGC enzyme synergy assay in the presence of 1 μM sodium nitroprusside (SNP); type: biochemical; settings: for sGC Enzyme (fold increase at 10 μM with SNP): 10 μM compound; for sGC Enzyme (fold increase at 30 μM with SNP): 30 μM compound
Protocol: Human soluble guanylate cyclase enzyme (hsGC) obtained from Enzo Inc. (P/N: ALX-201-177) was used to evaluate the activity of test compounds. The assay reactions contained 0.1 M Tris (pH 8.0), 0.5 mg/mL BSA (pH 8.0), 2 mM DTT, 2 mM MgCl2, 300 μM GTP, 1 mM 3-isobutyl-1-methylxanthine (IBMX) and 5 ng human soluble guanylate cyclase enzyme. Test compounds in DMSO were then added (2 μL, 10 or 30 μM final concentration) and incubated (200 μL, 96-well plate format) at 37° C. for 30 minutes. The controls were carried out using 2 μL DMSO. After the 30 minute incubation, the reaction was stopped with the addition of 200 μL of cold methanol. The plate was then centrifuged at 3,200 rpm for 10 minutes at room temperature. Supernatants (200 μL) were collected and transferred to a new 96 well plate for analysis.
An 8 point cGMP (Sigma-Aldrich P/N: G6129) standard curve was prepared in assay buffer ranging from 0.156-20 μM. Samples for the cGMP standard curve were then diluted with an equal volume of methanol resulting in final cGMP concentrations of 0.078-10 μM.
The cGMP standard curve was generated using GraphPad Prism Software.
Calculations: Specific Activity was determined by the amount of cGMP formed (nmoles) per mg of sGC per min. Enzyme “fold-change” was calculated by dividing Specific Activity for test compounds by Specific Activity of DMSO controls.
Enzyme assays were performed as described above, but was done in the presence of 1 μM sodium nitroprusside (SNP).

[4] = read-out: HEK WC Assay (% Emax at 10 uM/with 10 uM SNP)
[5] = read-out: HEK WC Assay (% Emax at 30 uM/with 10 uM SNP)
[6] = read-out: HEK WC Assay (% Emax at 10 μM/with 10 uM SNP)
[7] = read-out: HEK WC Assay (% Emax at 30 μM/with 10 uM SNP)

soluble guanylate cyclase (sGC), sequence (Q02153 whole entry): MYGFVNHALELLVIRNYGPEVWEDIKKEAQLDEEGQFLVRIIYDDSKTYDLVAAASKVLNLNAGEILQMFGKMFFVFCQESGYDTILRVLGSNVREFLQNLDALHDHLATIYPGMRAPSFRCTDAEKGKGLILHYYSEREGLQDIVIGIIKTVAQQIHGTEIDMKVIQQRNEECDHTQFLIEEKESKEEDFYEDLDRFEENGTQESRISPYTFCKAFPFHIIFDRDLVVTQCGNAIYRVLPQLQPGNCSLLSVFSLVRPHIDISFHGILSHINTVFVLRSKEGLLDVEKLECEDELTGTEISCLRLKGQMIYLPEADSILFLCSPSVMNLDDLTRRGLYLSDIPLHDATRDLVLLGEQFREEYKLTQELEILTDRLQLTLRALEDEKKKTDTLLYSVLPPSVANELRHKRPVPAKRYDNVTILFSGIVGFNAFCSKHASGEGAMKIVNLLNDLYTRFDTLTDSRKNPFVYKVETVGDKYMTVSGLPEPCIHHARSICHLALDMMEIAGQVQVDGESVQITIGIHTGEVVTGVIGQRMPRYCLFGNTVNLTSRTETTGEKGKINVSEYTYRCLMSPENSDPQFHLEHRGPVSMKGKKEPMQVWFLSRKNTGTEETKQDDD
soluble guanylate cyclase (sGC), sequence (Q02108 whole entry): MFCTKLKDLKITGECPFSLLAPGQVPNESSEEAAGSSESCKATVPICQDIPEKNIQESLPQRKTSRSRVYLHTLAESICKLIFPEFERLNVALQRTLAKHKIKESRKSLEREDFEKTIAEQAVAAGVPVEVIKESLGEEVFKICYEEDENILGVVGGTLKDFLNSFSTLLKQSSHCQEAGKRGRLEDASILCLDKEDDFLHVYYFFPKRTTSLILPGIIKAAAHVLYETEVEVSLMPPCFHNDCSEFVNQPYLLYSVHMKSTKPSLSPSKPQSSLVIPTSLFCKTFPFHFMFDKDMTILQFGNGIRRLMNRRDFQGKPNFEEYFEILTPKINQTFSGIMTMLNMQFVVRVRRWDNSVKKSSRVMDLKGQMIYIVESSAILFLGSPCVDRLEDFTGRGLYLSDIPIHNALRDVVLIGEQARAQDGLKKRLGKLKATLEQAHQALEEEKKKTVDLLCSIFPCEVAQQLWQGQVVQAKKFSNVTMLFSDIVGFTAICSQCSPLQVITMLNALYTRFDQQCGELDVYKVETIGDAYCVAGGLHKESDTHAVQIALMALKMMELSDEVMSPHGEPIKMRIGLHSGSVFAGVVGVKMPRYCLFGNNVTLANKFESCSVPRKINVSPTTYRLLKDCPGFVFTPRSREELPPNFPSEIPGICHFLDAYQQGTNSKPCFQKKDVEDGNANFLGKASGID
T1 sequence (Q02153 whole entry): as the sequence (Q02153 whole entry) above
T1 sequence (Q02108 whole entry): as the sequence (Q02108 whole entry) above

SMILES	Emax at 10 µM [1, 4]	Emax at 30 µM [1, 5]	sGC Enzyme (specific activity at 10 μM) ([2]; 10 μM compound)	sGC Enzyme (fold increase at 10 μM without SNP) ([2]; 10 μM compound)	sGC Enzyme (specific activity at 30 μM) [2]	sGC Enzyme (fold increase at 30 μM without SNP) [2]	sGC Enzyme (fold increase at 10 μM with SNP) ([3]; with 1 μM SNP)	sGC Enzyme (fold increase at 30 μM with SNP) ([3]; with 1 μM SNP)	Emax at 10 µM [1, 6]	Emax at 30 µM [1, 7]	sGC Enzyme (fold increase at 30 μM) ([2]; without the addition of SNP)	sGC Enzyme (fold increase at 30 μM with SNP) ([3]; with the addition of SNP)	sGC Enzyme (fold increase at 10 μM) ([2]; 10 μM compound, without the addition of SNP)	sGC Enzyme (fold increase at 10 μM with SNP) ([3]; with the addition of SNP)
Cc1ccc(-c2cc(-c3ccccn3)n(Cc3ccccc3F)n2)nc1 [Compound I-57]	0 to 10%	0 to 10%	B (B = 50 to <100)	A (A = no increase to <2 fold increase)	B (B = 50 to <100)	A (A = no increase to <2 fold increase)	A (A = no increase to <2 fold increase)	B (B = 2 to <5 fold increase)						
Cc1ccc(-c2c(Br)c(-c3ncccn3)nn2Cc2ccccc2F)cc1 [Compound I-58]	0 to 10%	0 to 10%	B (B = 50 to <100)	A (A = no increase to <2 fold increase)	B (B = 50 to <100)	B (B = 2 to <5 fold increase)	B (B = 2 to <5 fold increase)	B (B = 2 to <5 fold increase)						
Fc1ccccc1Cn1nc(-c2ncccn2)cc1-c1ccccc1F [Compound I-59]	0 to 10%	0 to 10%	B (B = 50 to <100)	B (B = 2 to <5 fold increase)	C (C = 100 to <200)	B (B = 2 to <5 fold increase)	B (B = 2 to <5 fold increase)	C (C = 5 to <10 fold increase)						
COc1ccc(-c2cc(-c3ncccn3)nn2Cc2ccccc2F)cc1 [Compound I-60]	0 to 10%	0 to 10%	B (B = 50 to <100)	A (A = no increase to <2 fold increase)	C (C = 100 to <200)	B (B = 2 to <5 fold increase)	A (A = no increase to <2 fold increase)	A (A = no increase to <2 fold increase)						
Fc1ccccc1Cn1nc(-c2ccccn2)c(Br)c1-c1ccccn1 [Compound I-62]	0 to 10%	0 to 10%	B (B = 50 to <100)	A (A = no increase to <2 fold increase)	B (B = 50 to <100)	A (A = no increase to <2 fold increase)	A (A = no increase to <2 fold increase)	A (A = no increase to <2 fold increase)						
Fc1ccccc1Cn1nc(-c2ccccn2)c(Cl)c1-c1ccccn1 [Compound I-63]	0 to 10%	0 to 10%	B (B = 50 to <100)	A (A = no increase to <2 fold increase)	B (B = 50 to <100)	A (A = no increase to <2 fold increase)	A (A = no increase to <2 fold increase)	A (A = no increase to <2 fold increase)						
Fc1ccccc1Cn1nc(-c2ccccn2)c(Br)c1C1CCC1 [Compound I-64]	0 to 10%	0 to 10%	A (A = 0 to <50)	A (A = no increase to <2 fold increase)	B (B = 50 to <100)	A (A = no increase to <2 fold increase)	A (A = no increase to <2 fold increase)	B (B = 2 to <5 fold increase)						
Cc1ccc(-c2cc(-c3ncccn3)nn2Cc2ccccc2F)cc1 [Compound I-65]	0 to 10%	0 to 10%	B (B = 50 to <100)	B (B = 2 to <5 fold increase)	C (C = 100 to <200)	B (B = 2 to <5 fold increase)	B (B = 2 to <5 fold increase)	C (C = 5 to <10 fold increase)						
Cc1ccc(-c2c(Br)c(-c3ccccn3)nn2Cc2ccccc2F)cc1 [Compound I-67]	0 to 10%	0 to 10%	C (C = 100 to <200)	A (A = no increase to <2 fold increase)	D (D = 200 to <500)	A (A = no increase to <2 fold increase)	A (A = no increase to <2 fold increase)	A (A = no increase to <2 fold increase)						
Cc1ccc(-c2c(C#N)c(-c3ncccn3)nn2Cc2ccccc2F)cc1 [Compound I-69, 1-(2-fluorobenzyl)-3-(pyrimidin-2-yl)-5-p-tolyl-1H-pyrazole-4-carbonitrile]	0 to 10%	0 to 10%		A (A = no increase to <2 fold increase)		A (A = no increase to <2 fold increase)	A (A = no increase to <2 fold increase)	A (A = no increase to <2 fold increase)						
Cc1cccc(-c2cc(-c3ncccn3)nn2Cc2ccccc2F)n1 [Compound I-70, 2-(1-(2-fluorobenzyl)-5-(6-methylpyridin-2-yl)-1H-pyrazol-3-yl)pyrimidine]									0 to 10%	0 to 10%	A (A = no increase to <2 fold increase)	A (A = no increase to <2 fold increase)		
Oc1cccc(-c2cc(-c3ccccn3)nn2Cc2ccccc2F)n1 [Compound I-79, 6-(1-(2-fluorobenzyl)-3-(pyridin-2-yl)-1H-pyrazol-5-yl)pyridin-2-ol]									0 to 10%	0 to 10%	A (A = no increase to <2 fold increase)	A (A = no increase to <2 fold increase)	A (A = no increase to <2 fold increase)	A (A = no increase to <2 fold increase)
Cc1cccc(-c2cc(-c3ncccn3)n(Cc3ccccc3F)n2)n1 [Compound I-81, 2-(1-(2-fluorobenzyl)-3-(6-methylpyridin-2-yl)-1H-pyrazol-5-yl)pyrimidine]									0 to 10%	0 to 10%	A (A = no increase to <2 fold increase)	A (A = no increase to <2 fold increase)		
COC(=O)N(C)c1c(N)nc(-c2cc(-c3ccccn3)n(Cc3ccccc3F)n2)nc1N [Compound I-88]									0 to 10%	0 to 10%	A (A = no increase to <2 fold increase)	A (A = no increase to <2 fold increase)		
COC(=O)Nc1c(N)nc(-c2cc(-c3ccccn3)n(Cc3ccccc3F)n2)nc1N [Compound I-89]									0 to 10%	0 to 10%	A (A = no increase to <2 fold increase)	A (A = no increase to <2 fold increase)		
Fc1ccccc1Cn1nc(-c2ncccn2)cc1C1CC1 [Compound I-90]									0 to 10%	0 to 10%	A (A = no increase to <2 fold increase)	B (B = 2 to <5 fold increase)		
Fc1ccccc1Cn1nc(-c2ncccn2)cc1-c1ccc(Cl)s1 [Compound I-91]									0 to 10%	10 to 20%	B (B = 2 to <5 fold increase)	C (C = 5 to <10 fold increase)		
COC(=O)Nc1c(N)nc(-c2cc(-c3nccs3)n(Cc3ccccc3F)n2)nc1N [Compound I-93]									10 to 20%	20 to 40%	B (B = 2 to <5 fold increase)	C (C = 5 to <10 fold increase)		
